According to paper PMC10655782 (Alzheimer's & Dementia : Translational Research & Clinical …, 2023):

What was measured:
HMC3 cells = experiment: High‐content imaging assay; assay type: cell-based
[1] = biological target: T1, HiBit‐SHIP1 (full‐length human SHIP1) (Homo sapiens, UniProt Q92835); experiment: SplitLuc cellular thermal shift assay; assay type: cell-based; details: for CETSA % (percent luminescence at the highest dose): highest dose (100 μM); for CETSA TE (target engagement): significant if difference from control at highest dose >3SD
T1 sequence (Q92835 1-1189): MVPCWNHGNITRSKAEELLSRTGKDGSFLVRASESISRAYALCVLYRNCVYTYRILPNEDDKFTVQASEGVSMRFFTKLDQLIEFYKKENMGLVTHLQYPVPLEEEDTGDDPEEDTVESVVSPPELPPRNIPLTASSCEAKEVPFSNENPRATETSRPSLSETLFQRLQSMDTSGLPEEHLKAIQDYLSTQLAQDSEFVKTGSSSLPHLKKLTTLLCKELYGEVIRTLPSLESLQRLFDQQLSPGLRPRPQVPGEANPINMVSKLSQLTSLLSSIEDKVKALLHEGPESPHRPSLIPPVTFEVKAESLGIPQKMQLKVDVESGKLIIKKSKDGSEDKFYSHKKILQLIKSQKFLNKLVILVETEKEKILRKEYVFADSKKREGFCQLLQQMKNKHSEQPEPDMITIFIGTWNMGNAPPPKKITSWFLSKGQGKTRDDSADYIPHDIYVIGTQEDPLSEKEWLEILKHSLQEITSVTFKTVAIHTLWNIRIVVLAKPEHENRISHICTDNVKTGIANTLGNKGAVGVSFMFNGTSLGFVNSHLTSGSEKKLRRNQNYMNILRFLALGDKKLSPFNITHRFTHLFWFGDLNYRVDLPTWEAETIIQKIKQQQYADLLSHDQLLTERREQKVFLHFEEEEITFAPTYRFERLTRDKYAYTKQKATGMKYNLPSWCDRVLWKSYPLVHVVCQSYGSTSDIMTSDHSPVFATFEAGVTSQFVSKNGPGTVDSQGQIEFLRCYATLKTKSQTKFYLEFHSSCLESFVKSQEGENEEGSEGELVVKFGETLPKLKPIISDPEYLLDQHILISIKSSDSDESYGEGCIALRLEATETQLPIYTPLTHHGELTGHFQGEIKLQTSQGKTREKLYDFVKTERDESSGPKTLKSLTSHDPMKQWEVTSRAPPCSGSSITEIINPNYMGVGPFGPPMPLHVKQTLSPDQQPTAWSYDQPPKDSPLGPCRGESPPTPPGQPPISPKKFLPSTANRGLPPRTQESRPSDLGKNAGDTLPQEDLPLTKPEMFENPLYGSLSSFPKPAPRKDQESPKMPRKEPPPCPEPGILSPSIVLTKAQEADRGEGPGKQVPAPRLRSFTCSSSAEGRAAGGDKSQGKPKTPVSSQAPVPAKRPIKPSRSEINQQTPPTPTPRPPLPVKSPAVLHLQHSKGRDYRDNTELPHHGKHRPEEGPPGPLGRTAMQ

human SHIP1 Ptase‐C2 = biological target: T2, human SHIP1 Ptase‐C2 (Homo sapiens, UniProt Q92835); experiment: Malachite green enzyme assay, hSHIP1^395‐898 Ptase‐C2, substrate PtdIns; assay type: biochemical
T2 sequence (Q92835 395-898): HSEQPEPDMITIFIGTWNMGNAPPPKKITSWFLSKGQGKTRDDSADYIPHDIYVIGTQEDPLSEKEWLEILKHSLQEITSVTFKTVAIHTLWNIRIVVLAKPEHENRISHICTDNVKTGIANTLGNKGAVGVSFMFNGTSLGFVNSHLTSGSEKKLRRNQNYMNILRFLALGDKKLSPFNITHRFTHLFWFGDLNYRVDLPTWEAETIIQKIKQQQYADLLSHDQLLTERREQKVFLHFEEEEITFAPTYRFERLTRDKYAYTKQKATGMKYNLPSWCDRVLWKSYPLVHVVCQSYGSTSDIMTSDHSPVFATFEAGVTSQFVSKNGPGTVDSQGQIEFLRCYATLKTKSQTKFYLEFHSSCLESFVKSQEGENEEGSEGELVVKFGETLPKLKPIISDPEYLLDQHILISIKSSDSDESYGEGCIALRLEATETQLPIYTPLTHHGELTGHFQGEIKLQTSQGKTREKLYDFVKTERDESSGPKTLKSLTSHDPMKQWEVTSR

BV2 cells = experiment: High‐content imaging assay; assay type: cell-based, mouse
primary mouse microglia = experiment: High‐content imaging phagocytosis assay in primary mouse microglia; assay type: cell-based

Compound | cellular phenotype in high‐content imaging (in words) (HMC3 cells) | AC50 [1] [µM] | CETSA % (percent luminescence at the highest dose) [1] | CETSA TE (target engagement) [1] | IC50 (human SHIP1 Ptase‐C2) [µM] | cellular phenotype in high‐content imaging (in words) (BV2 cells) | EC50 (primary mouse microglia; Mus musculus, Microglia, read-out: phagocytosis EC50) [µM] | increased phagocytosis (primary mouse microglia; primary mouse microglia from neonate mice) [fold]
CC(=O)C1=C(C)Nc2sc(C(=O)c3ccc(Cl)c(Cl)c3)c(N)c2C1c1cccnc1 (stereo not shown) [Compound 2] | inactive | 46 ± 5 | 30 ± 7 (2) % | Yes | 18.6 | inactive | – | –
CC(C)c1ccc(C2C(C#N)=C3N=C(N)c4ccccc4N3C3=C2C(=O)CCC3)cc1 (stereo not shown) [Compound 3] | – | 173 | 63 ± 12 (2) % | Yes | 26.8 | – | – | –
CC(C)CCC[C@@H](C)[C@H]1CC[C@H]2[C@@H]3CCC4C[C@H](N)CC[C@]4(C)[C@H]3CC[C@]12C (stereo partly drawn) [Compound 13, 3α‐aminocholestane, reference compound] | – | – | – | – | 201 | – | – | –
Clc1ccc(COc2cncc(-c3cnn(C4CCNCC4)c3)c2)c(Cl)c1 [Compound 23, 3‐((2,4‐Dichlorobenzyl)oxy)‐5‐(1‐(piperidin‐4‐yl)‐1H‐pyrazol‐4‐yl)pyridine, reference compound] | – | – | 27 ± 15 (3) % | Yes | 251 | – | 0.54 | 1.5
